Data set [1] concerns the target T1, CYP2C9 (Homo sapiens, UniProt P11712).
T1 construct: tissue BD-Gentest 452117; host or cells: human liver microsomes
Put plainly: CYP inhibition assay in human liver microsome, CYP2C9. The data set is classed as in vitro ADME. As to conditions: human, human liver microsomes, probe diclofenac 5 μM, substrate diclofenac 5 μM, first value of 2C9/2D6/3A4. The essentials: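 Pooled human liver microsomes with a substrate for each CYP were incubated with compound at 37 °C after NADPH addition, for 5 min (CYP2D6: 10 min), then quenched with acetonitrile containing labelled metabolite standards. Metabolite/internal-standard peak area ratios were measured by RapidFire MS/MS. % inhibition was scaled between DMSO and standard-inhibitor controls.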

The target in data set [2] is T2, CYP2D6 (Homo sapiens, UniProt P10635).
T2 construct: tissue BD-Gentest 452117; host or cells: human liver microsomes
The experiment in a line: CYP inhibition assay in human liver microsome, CYP2D6. In kind it is in vitro ADME. As to conditions: human, human liver microsomes, probe dextromethorphan 5 μM, substrate dextromethorphan 5 μM, second value of 2C9/2D6/3A4. As for the experimental part:
This is a high throughput screening assay used for assessment of reversible inhibition of CYP2C9, CYP2D6, and CYP3A4 activity of test compounds in human liver microsome (HLM) in early discovery stage.
10 mM DMSO stock solutions of test compounds were diluted in DMSO to generate 2 mM intermediate stock solution. 250 nL, of intermediate stock solution were transferred in duplicate into 3 separate 384 well microtitre plates (assay-ready plates). A mixture of HLM and each substrate was made up. 45 μL of HLM substrate mix was then transferred to each well of an assay ready plate and mixed. The negative (solvent) and positive controls (standard inhibitor for each CYP) were included in each assay ready plate. The assay ready plate was warmed to 37° C. in an incubator over 10 minutes. 5 μL pre-warmed NADPH regenerating system was added to each incubation well to start the reaction. Final incubation volume was 50 μL. The assay plate then was placed back in the 37° C. incubator. After incubation (10 minutes for CYP2D6) for 5 minutes, incubates were quenched by addition of 50 μL 100% acetonitrile containing internal standards (400 ng/mL 13C6-4′-OH-Diclofenac, 20 ng/mL D3-Dextrorphan and 20 ng/mL D4-1′OH-Midazolam). The supernatants were collected for RapidFire/MS/MS analysis.
RapidFire online solid phase extraction/sample injection system (Agilent) coupled with API4000 triple quadrupole mass spectrometer (AB Sciex) were used for sample analysis. The mobile phase composed of acetonitrile and water supplemented with 0.1% formic acid. A C4 solid phase extraction cartridge is used for sample separation. MS detection is achieved in positive ion MRM mode.
Peak areas for substrate, metabolite and internal standard are determined using the RapidFire integrator software (version 3.6.12009.12296). Peak area ratios (PAR) of metabolite and internal standard (stable-labelled metabolite) are then calculated. The measurement window for each experiment is then defined:
PAR (0% activity)=average PAR for all incubations containing concentrated inhibitor; Par (100% activity)=average PAR for all incubations containing no inhibitor (DMSO controls); % Activity (test inhibitor)=[PAR (test inhibitor)−PAR (0% activity)]/[PAR (100% activity)−PAR (0% activity)]; % Inhibition (test inhibitor)=100-% Activity (test inhibitor).

Data set [3] has as its target T3, hERG channel (Homo sapiens, UniProt Q12809).
T3 construct: expressed in transfected cells; host or cells: CHO (Chinese hamster ovary)
Put plainly: hERG channel inhibition assay (patch-clamp, CHOhERG cells). The data set is classed as cell-based. The essentials: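 Whole-cell voltage-clamp recordings used CHO cells stably expressing human hERG, with IKhERG evoked by a voltage protocol at 0.1 Hz. Increasing compound concentrations were applied, each for 3–10 min to reach steady state, and current amplitude and kinetics were expressed relative to control (100%).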

T3 sequence (Q12809 whole entry): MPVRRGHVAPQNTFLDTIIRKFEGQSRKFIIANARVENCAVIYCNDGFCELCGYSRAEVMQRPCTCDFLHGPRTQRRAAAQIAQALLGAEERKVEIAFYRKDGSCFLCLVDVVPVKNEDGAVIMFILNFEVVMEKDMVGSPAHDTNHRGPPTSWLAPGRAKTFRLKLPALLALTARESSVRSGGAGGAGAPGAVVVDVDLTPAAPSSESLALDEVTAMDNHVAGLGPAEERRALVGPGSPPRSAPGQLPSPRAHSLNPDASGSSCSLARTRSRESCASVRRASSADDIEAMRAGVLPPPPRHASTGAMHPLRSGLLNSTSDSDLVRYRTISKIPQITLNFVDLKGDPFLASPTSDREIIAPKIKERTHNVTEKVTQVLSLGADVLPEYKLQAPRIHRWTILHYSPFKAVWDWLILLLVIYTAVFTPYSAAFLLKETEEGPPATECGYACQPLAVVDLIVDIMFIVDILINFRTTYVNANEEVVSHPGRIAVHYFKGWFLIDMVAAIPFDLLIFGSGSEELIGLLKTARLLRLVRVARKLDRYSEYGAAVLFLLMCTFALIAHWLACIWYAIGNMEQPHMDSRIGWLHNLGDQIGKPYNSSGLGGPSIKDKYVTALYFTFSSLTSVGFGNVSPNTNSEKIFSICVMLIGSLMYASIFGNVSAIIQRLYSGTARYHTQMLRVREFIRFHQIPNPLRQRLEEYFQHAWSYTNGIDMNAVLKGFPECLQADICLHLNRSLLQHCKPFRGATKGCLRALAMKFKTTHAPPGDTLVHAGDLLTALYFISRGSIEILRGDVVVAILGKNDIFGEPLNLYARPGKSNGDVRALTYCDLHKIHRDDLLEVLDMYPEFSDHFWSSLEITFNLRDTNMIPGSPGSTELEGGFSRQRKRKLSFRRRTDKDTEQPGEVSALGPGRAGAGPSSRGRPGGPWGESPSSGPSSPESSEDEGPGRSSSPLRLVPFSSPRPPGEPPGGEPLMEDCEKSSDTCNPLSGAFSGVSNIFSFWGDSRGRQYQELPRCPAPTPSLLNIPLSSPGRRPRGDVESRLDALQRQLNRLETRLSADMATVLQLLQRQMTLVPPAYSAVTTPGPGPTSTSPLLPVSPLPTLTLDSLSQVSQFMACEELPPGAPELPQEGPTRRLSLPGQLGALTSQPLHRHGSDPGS
T1 sequence (P11712 whole entry): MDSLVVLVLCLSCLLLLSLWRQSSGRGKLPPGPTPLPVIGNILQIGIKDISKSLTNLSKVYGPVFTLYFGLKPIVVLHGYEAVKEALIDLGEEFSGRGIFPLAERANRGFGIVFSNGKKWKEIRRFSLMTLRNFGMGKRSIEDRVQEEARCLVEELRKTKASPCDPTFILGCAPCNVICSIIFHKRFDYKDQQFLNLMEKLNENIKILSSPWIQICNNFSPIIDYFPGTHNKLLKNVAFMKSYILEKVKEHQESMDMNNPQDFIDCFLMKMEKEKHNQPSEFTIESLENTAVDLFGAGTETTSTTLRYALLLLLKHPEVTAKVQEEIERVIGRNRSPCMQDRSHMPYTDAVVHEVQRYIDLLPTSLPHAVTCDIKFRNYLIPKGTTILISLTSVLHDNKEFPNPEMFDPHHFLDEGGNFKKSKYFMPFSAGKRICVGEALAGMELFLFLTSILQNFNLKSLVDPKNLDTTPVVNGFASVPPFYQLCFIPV
T2 sequence (P10635 whole entry): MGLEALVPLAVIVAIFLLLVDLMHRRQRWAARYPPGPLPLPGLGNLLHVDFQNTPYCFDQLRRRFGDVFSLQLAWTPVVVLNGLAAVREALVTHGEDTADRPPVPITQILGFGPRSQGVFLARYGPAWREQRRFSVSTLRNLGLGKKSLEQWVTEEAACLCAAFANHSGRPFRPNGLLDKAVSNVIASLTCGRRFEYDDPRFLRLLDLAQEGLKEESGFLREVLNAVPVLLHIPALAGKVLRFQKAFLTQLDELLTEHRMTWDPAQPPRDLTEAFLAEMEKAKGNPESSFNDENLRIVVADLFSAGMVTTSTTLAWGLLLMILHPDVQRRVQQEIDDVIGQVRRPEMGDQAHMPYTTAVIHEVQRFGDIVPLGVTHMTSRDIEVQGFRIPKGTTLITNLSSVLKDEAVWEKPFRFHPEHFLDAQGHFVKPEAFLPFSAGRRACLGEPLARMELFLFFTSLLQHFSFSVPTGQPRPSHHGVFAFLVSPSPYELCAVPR

The term inhibition denotes the change of the read-out against control, counted positive when it falls. A word on the IC20: it is the concentration at which the effect reaches the 20% level. Low readings indicate an effect from little substance, high ones a need for much substance. One may read the IC50 as the concentration at which inhibition is half-maximal. A high value points to weaker potency. With `CO[C@@H]1CN(c2ccc(N3CCN(C[C@H]4CN(c5ccc(C#N)n6ncc(F)c56)C[C@@H](C)O4)CC3)cn2)C[C@H]1N` [Example 166, 4-[(2S,6R)-2-[[4-[6-[(3R,4R)-3-amino-4-methoxy-pyrrolidin-1-yl]-3-pyridyl]piperazin-1-yl]methyl]-6-methyl-morpholin-4-yl]-3-fluoro-pyrazolo[1,5-a]pyridine-7-carbonitrile], in data set [1], the inhibition at 5 min, 10 µM was -3.5%. Moreover, the inhibition at 10 min, 10 µM in data set [2] came out at 20%. In data set [3] (human, CHO cells stably expressing hERG (CHOhERG), patch-clamp, CHOhERG cells), this compound yielded an IC20 of 8 µM. In data set [3] (patch-clamp, CHOhERG cells), this compound gave an IC50 greater than 20 µM. Further, in data set [3] (safety ratio), the “hERG IC20/TLR7 IC50” value was 380, the “hERG IC20/TLR8 IC50” value is given as 258 and the “hERG IC20/TLR9 IC50” value was 173.

The values above are taken from patent US20210395239A1 (Hoffmann-La Roche Inc., priority 2018, published 2021).
